Counter-ions that a name gives are not always drawn.
How the values were obtained:
[1] = tested on: total serum testosterone; experiment: Serum testosterone in male baboons given Clomid, Enclomid or Zuclomid; format: in vivo; details: for effect on total serum testosterone: 1.5 mg/kg for 12 days, vs baseline or day 0
From the text: There were significant increases in total serum testosterone in the group receiving Enclomid. There were no differences among groups in the baseline period or at day 0. There were also no differences among the three groups 7 days after treatment (the washout period). However, Enclomid produced higher levels of testosterone compared to Clomid and Zuclomid on day 6 (p=0.03 and p=0.00002 respectively) and compared to Zuclomid on day 12 (p=0.047). […] Enclomid was clearly better and more consistent than Clomid itself and Zuclomid was ineffective.

[2] = in vivo
Description: Adult, male, Baboons were given 1.5 mg/kg of Clomid (clomiphene citrate), Enclomid (trans-Clomiphene) or Zuclomid (cis-clomiphene) for 12 consecutive days. The samples analyzed were sera taken on the day of first treatment before being given test article (day 0), after 12 days of treatment (day 12) and 7 days after the last treatment (end or wash-out).

[3] = tested on: serum LH, FSH, PRL; experiment: Body weight and serum LH, FSH, PRL in male baboons; format: in vivo; details: during the study
From the text: There were no changes in serum LH or FSH. […] There was also no change in body weight during the 12 day study.

[4] = tested on: serum LH and FSH; details: hypogonadal male subjects, two week treatment
Description: (§1) A placebo controlled challenge study was conducted at the Advanced Biological Research, Inc. (ABR) Clinical Research Center in Hackensack, N.J. to compare orally administered Androxal™ (trans-clomiphene) to Androgel® in hypogonadal men.
(§2) Half of the men in each of the Androxal™ and placebo arms were randomized into cohorts that underwent in-clinic sessions on days 1 and 14 to determine pharmacokinetic parameters for Androxal™ as well as cyclical changes in testosterone. The placebo and Androxal™ doses were administered in a double blind fashion. The Androgel® cream was administered in an open label fashion. Half of the Androgel® patients underwent in-clinic sessions similar to the other patients in the study. Following the two week drug exposure, patients were followed for an additional seven to ten days to determine the status of their testosterone levels.

[5] = tested on: fasting glucose levels; details: patients with BMI>26; 50 mg dose; at the 3 and 4.5 month periods
Description: A placebo controlled study was conducted to determine the effects of orally administered Androxal™ (trans-clomiphene) and Androgel® on blood glucose levels.
The study enrolled hypogonadal men (testosterone less than 300 ng/dl) with a broad range of body mass indices (BMI). […] The placebo and Androxal™ doses were administered in a double blind fashion. The Androgel® cream was administered in an open label fashion. Fasting glucose levels were monitored in the patients immediately prior to treatment (baseline) and at regular intervals during the study.

[6] = Androxal vs Androgel study: other clinical chemistry (DHT/TT, triglycerides) and side effects; format: in vivo; details: hypogonadal men, after two weeks of therapy; non-dose dependent
[7] = tested on: total testosterone; details: hypogonadal men; 50 mg dose
Description: as §1, §2

## CCN(CC)CCOc1ccc(C(=C(Cl)c2ccccc2)c2ccccc2)cc1 [Clomid, clomiphene citrate]
[1]
  effect on total serum testosterone: more variable total testosterone levels on day 6 and later
[2]
  ALT/SGPT: out of range low at the end of the study
  BUN and BUN/creatinine: altered during the study
  serum carbon dioxide: higher than reference values on day 12
[2]; 1.5 mg/kg
  increase in serum glucose: within the normal range

## CCN(CC)CCOc1ccc(/C(=C(\Cl)c2ccccc2)c2ccccc2)cc1 [Enclomid, trans-clomiphene]
[3]
  serum prolactin (PRL): decrease in serum prolactin (PRL)
[4]
  serum levels of FSH: boosts serum FSH
[5]
  reduction in serum glucose from baseline: ~24 mg/dL
[6]
  reduction in triglycerides, average decrease: 19.1%
[1]
  effect on total serum testosterone: significantly and statistically raised total serum testosterone on days 6 and 12
[1]; day 12 to day 18 (washout)
  total serum testosterone after cessation of treatment: significant drop in the level of total serum testosterone between day 12 and day 18
[2]
  BUN and BUN/creatinine: altered during the study
  percent of granulocytes in the blood: strong effect of Enclomid on lowering the percent of granulocytes
  platelet count: pushed the platelet count to its normal male level
  serum alkaline phosphatase (ALP): decreased in value
[2]; 1.5 mg/kg
  counts of eosinophiles: raising the counts of lymphocytes and eosinophiles
  effects on the red blood cell population: substantive effects on the red blood cell population
  increase in serum glucose: no increases with treatment
[7]
  mean total testosterone after 15 days: 589 ± 172 ng/dL

## CCN(CC)CCOc1ccc(/C(=C(/Cl)c2ccccc2)c2ccccc2)cc1 [Zuclomid, cis-clomiphene]
[2]
  serum alkaline phosphatase (ALP): not elevated
  serum carbon dioxide: higher than reference values on day 12
[2]; 1.5 mg/kg
  effects on the red blood cell population: substantive effects on the red blood cell population
  increase in serum glucose: within the normal range

From patent US8377991B2, “Trans-clomiphene for metabolic syndrome” (priority 2007, dated 2013)
